In US4835163A, “N-alkoxyalkyl derivatives of quinolone carboxamides” (Sanofi, priority 1986, dated 1989):

Experiments:
[1] = anticonvulsive activity, test with pentetrazol; type: in vivo, mice (male CD1); conditions: Mus musculus, 0.5 h; oral route, 30 minutes before pentetrazol 135 mg/kg s.c.; dose which avoids attacks in half of the animals; read-out: DE50 (the source's name)
Method: This activity has been studied by the test with pentetrazol, according to the method of EVERETT and RICHARDS (J. Pharm. Exp. Ther. 1944, 81, 402-407).
Thus the DE50 is determined, which is the dose which avoids the appearance of attacks in half of the animals. The DE 50 has been calculated by the method of D. K. Finney (Probit analysis; University Press; Cambridge; 1971).

[2] = antagonist activity vis a vis the hypnotic effects of benzodiazepines; conditions: 25 mg/kg i.p., 15 minutes before diazepam 6 mg/kg i.p.; control 97 ± 12; * P < 0.05 vs control
[3] = acute oral toxicity (LD 50); conditions: mouse, in vivo, mice
Description: The components of the invention benefit from a good tolerance and a weak toxicity. […] 1, in mice.

[4] = locomotive activity, photoelectric cell actimeter; type: in vivo, mice (male CD1); conditions: 32 mg/kg O.R.; untreated mice 553 ± 200; P <0.05 (Student test)
Method: The mice (male CD1 20-25 g) are placed in groups of three in the cages of a photoelectric cell actimeter. After 30 minutes of getting used to the enclosure, the animas are treated by oral route with the product under test in suspension in carboxymethylcellulose at 1%. A control set of untreated mice receive only the vehicle. Each set contains 12 groups of 3 mice. The movement activity responses are recorded for 80 minutes.

Compound: CCCNC(=O)c1cn(CCOCC)c2ccccc2c1=O [derivative no. 14, 1-ethoxyethyl-4-oxo-1,4-dihydro-quinoline 3-(N-propyl)carboxamide]
- ED50 [1]: 79 mg/kg

Compound: CCCNC(=O)c1cn(COCC)c2ccccc2c1=O [derivative no. 13, 1-ethoxymethyl-4-oxo-1,4-dihydro-quinoline 3-(N-propyl)carboxamide]
- ED50 [1]: 75 mg/kg

Compound: CCCNC(=O)c1cn(COC)c2ccc(F)cc2c1=O [derivative no. 9, 1-methoxymethyl-4-oxo-6-fluoro-1,4-dihydro-quinoline 3-(N-propyl)carboxamide]
- ED50 [1]: 62 mg/kg
- Length of sleep [2]: 22 ± 8 min

Compound: COCn1cc(C(=O)NCC(C)C)c(=O)c2ccccc21 [derivative no. 5, 1-methoxymethyl-4-oxo-1,4-dihydro-quinoline 3-(N-isobutyl)carboxamide]
- ED50 [1]: 46 mg/kg
- Length of sleep [2]: 62 ± 10 min

Compound: CCCNC(=O)c1cn(COC)c2ccc(OC)cc2c1=O [derivative no. 12, 1-methoxymethyl-4-oxo-6-methoxy-1,4-dihydro-quinoline 3-(N-propyl)carboxamide]
- ED50 [1]: 65 mg/kg

Compound: COCn1cc(C(=O)NC2CC2)c(=O)c2ccccc21 [derivative no. 7, 1-methoxymethyl-4-oxo-1,4-dihydro-quinoline 3-(N-cyclopropyl)carboxamide]
- ED50 [1]: 67 mg/kg
- Length of sleep [2]: 32 ± 11 min

Compound: CCCNC(=O)c1cn(CCOC)c2ccccc2c1=O [derivative no. 15, 1-methoxyethyl-4-oxo-1,4-dihydro-quinoline 3-(N-propyl)carboxamide]
- ED50 [1]: 50 mg/kg

Compound: CCCNC(=O)c1cn(COC)c2ccccc2c1=O [derivative no. 1, 1-methoxymethyl-4-oxo-1,4-dihydro-quinoline 3-(N-propyl)carboxamide]
- LD50 [3]: 1100 mg/kg
- ED50 [1]: 55 mg/kg
- Movement Activity for 80 min [4]: 1842 ± 470
- Length of sleep [2]: 39 ± 20 min

Compound: CCCC(CCC)C(=O)[O-].[Na+] [sodium valproate, reference compound]
- ED50 [1]: 200 mg/kg

Compound: CCCNC(=O)c1cn(COC)c2c(F)cccc2c1=O [derivative no. 10, 1-methoxymethyl-4-oxo-8-fluoro-1,4-dihydro-quinoline 3-(N-propyl)carboxamide]
- ED50 [1]: 53 mg/kg

Compound: COCn1cc(C(=O)NC2CCCC2)c(=O)c2ccccc21 [derivative no. 8, 1-methoxymethyl-4-oxo-1,4-dihydro-quinoline 3-(N-cyclopentyl)carboxamide]
- ED50 [1]: 108 mg/kg

Compound: CCCNC(=O)c1cn(COC)c2c(Cl)cccc2c1=O [derivative no. 11, 1-methoxymethyl-4-oxo-8-chloro-1,4-dihydro-quinoline 3-(N-propyl)carboxamide]
- ED50 [1]: 21 mg/kg

Compound: CCC1(c2ccccc2)C(=O)NC(=O)NC1=O [phenobarbital, reference compound]
- ED50 [1]: 10 mg/kg

Compound: CCNC(=O)c1cn(COC)c2ccccc2c1=O [derivative no. 3, 1-methoxymethyl-4-oxo-1,4-dihydro-quinoline 3-(N-ethyl)carboxamide]
- Length of sleep [2]: 9 ± 4 min
